{
  "source": "patent US10513731B2",
  "about": "“Modified nucleotides” (Illumina Cambridge Limited, priority 2002, dated 2019)",
  "key": {"[1]": {"target": "T1, polymerase (Thermococcus sp. 9° N exo −Y409V A485L) (Thermococcus sp., UniProt Q56366, A485L/D141A/E143A/Y409V)", "T1 construct": "purchased New England Biolabs", "T1 sequence (Q56366 whole entry D141A/E143A/Y409V/A485L)": "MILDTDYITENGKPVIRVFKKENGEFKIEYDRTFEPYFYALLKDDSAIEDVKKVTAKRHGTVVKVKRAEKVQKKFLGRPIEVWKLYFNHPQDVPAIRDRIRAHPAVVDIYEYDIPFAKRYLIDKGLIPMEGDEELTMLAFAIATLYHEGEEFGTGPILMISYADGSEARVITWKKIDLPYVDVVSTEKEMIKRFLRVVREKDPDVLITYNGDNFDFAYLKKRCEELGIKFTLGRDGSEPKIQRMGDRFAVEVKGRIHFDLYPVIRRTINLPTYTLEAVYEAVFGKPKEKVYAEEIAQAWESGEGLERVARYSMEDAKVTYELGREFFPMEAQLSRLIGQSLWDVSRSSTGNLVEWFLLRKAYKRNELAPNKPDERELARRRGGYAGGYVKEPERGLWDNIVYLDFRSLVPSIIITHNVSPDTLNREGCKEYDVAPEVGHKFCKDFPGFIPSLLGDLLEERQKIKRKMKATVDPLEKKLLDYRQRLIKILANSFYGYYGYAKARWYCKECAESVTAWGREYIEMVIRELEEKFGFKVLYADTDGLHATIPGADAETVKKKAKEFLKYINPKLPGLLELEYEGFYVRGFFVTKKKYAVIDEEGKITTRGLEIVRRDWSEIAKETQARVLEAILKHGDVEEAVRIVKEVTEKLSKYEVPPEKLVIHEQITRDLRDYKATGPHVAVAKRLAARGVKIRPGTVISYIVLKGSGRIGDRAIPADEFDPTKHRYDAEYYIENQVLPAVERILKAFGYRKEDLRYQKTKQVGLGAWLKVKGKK", "assay": "Enzyme incorporation of 3′-blocked dNTPs on a P32-labelled DNA primer/template, followed by a chase with native nucleoside triphosphates", "type": "biochemical", "experimental": "(§1) To a 100 nM DNA primer/template (primer previously labelled with P32 and T4 polynucleotide kinase) in Tris-HCl pH 8.8 50 mM, Tween-20 0.01%, and MgSO4 4 mM, add 2 μM compound 6 and 100 nM polymerase (Thermococcus sp. 9° N exo ^−Y409V A485L supplied by New England Biolabs). The template consists of a run of 10 adenine bases to show the effect of the block. The reaction is heated to 65 C for 10 mins. To show complete blocking, a chase is performed with the four native, unblocked nucleoside triphosphates.\nas §1, with “compound 38” for “compound 6”"}, "[2]": {"target": "T1, polymerase (Thermococcus sp. 9° N exo −Y409V A485L)", "assay": "Multiple cycles of incorporation, deblocking and capping on hairpin DNA attached to streptavidin beads, analysed by gel", "type": "biochemical", "details": "2 μM FFN, 100 nM polymerase, 65° C. 10-15 minutes; deblocking with TCEP 0.1M, 65° C. 15 minutes", "experimental": "By attaching a hairpin DNA (covalently attached self complementary primer/template) to a streptavidin bead The reaction can be performed over multiple cycles as shown in FIGS. 5 and 6.\nRemove the storage buffer and wash the beads 3 times with TE buffer (Tris-HCl pH 8, 10 mM and EDTA, 1 mM). Resuspend in B & W buffer (10 mM Tris-HCl pH 7.5, 1 mM EDTA and 2.0 M NaCl), add biotinylated ^32P labelled hairpin DNA with appropriate overhanging template sequence. Allow to stand at room temperature for 15 minutes. Remove buffer and wash beads 3 times TE buffer.\nTo a solution of Tris-HCl pH 8.8 50 mM, Tween-20 0.01%, MgSO4 4 mM, MnCl2 0.4 mM (except cycle 1, 0.2 mM), add 2 μM FFN and 100 nM polymerase. This solution is then added to the beads and mixed thoroughly and incubated at 65° C. for 10-15 minutes. The reaction mixture is removed and the beads washed 3 times with TE buffer.\nTris-(2-carboxyethyl)phosphines trisodium salt (TCEP) (0.1M) is added to the beads and mixed thoroughly. The mixture was then incubated at 65° C. for 15 minutes. The deblocking solution is removed and the beads washed 3 times with TE buffer. […]\nThe reaction products can be analysed by placing the bead solution in the well of a standard 12% polyacrylamide DNA sequencing gel in 40% formamide loading buffer. […]"}, "DNA polymerase": {"system": "DNA polymerase", "details": "eight termination assays, each with a different DNA polymerase; cited from earlier work"}},
  "data": [
    {"smiles": "CCN1/C(=C/C=C/C2=[N+](CCCCCC(=O)NCCSSCCC(=O)NCC#Cc3cn(C4CC(OCN=[N+]=[N-])C(COP(=O)(O)OP(=O)(O)OP(=O)(O)O)O4)c(=O)[nH]c3=O)c3ccc(S(=O)(=O)[O-])cc3C2(C)C)C(C)(C)c2cc(S(=O)(=O)O)ccc21", "note": "(centres unmarked) [compound 6]", "values": [
      {"measurement": "incorporation of the blocked nucleotide", "setting": "[1]; 2 μM compound, 100 nM polymerase, 100 nM primer/template, template with run of 10 adenine bases, 65 C for 10 mins", "result": "Quantitative incorporation"},
      {"measurement": "block to further incorporation", "setting": "[1]; chase with the four native, unblocked nucleoside triphosphates", "result": "effective block to further incorporation"},
      {"measurement": "cycles of incorporation", "setting": "[2]", "result": "six"}
    ]},
    {"smiles": "CCN1/C(=C/C=C/C2=[N+](CCCCCC(=O)NCCSSCCC(=O)NCC#Cc3cn([C@H]4CC(OCN=[N+]=[N-])[C@@H](COP(=O)(O)OP(=O)(O)OP(=O)(O)O)O4)c4nc(N)[nH]c(=O)c34)c3ccc(S(=O)(=O)[O-])cc3C2(C)C)C(C)(C)c2cc(S(=O)(=O)O)ccc21", "note": "(some centres unmarked) [compound 24]", "values": [
      {"measurement": "cycles of incorporation", "setting": "[2]", "result": "Two and two"}
    ]},
    {"smiles": "C=CCO[C@H]1C[C@H](n2cnc3c(N)ncnc32)O[C@@H]1COP(=O)(O)OP(=O)(O)OP(=O)(O)O", "note": "[3′-allyl dATP, 3′allyl deoxyriboadenosine 5′-triphosphate]", "values": [
      {"measurement": "ability to terminate DNA synthesis", "setting": "DNA polymerase", "result": "terminate DNA synthesis in a single termination assay, out of eight"}
    ]}
  ]
}
